We go through 18 molecules from patent publication US20240140941A1, “DERIVATIVE OF 2,5-DIKETOPIPERAZINE COMPOUND, AND PREPARATION METHOD THEREFOR, PHARMACEUTICAL COMPOSITION THEREOF AND USE THEREOF” (DALIAN WZ PROBIOTICS AD HEALTH CO., LTD, priority 2020, published 2024).

What is called IC50 is the concentration at which inhibition is half-maximal.

Where a name gives a salt, the structure may show the parent alone. Read-outs that look alike come from different tables or passages of the source.

Format in all cases: cell-based, human
The subject of one experiment is NCI-H460. Kind of experiment: Inhibition test on cell proliferation (MTT), NCI-H460. The method, then:
(§1) Tumor cells (NCI-H460, BxPC-3, HT-29, HCC-LM3) in the logarithmic growth phase were digested, centrifuged, and the supernatants were removed. Cells were resuspended by adding fresh culture medium, and counted using a cell counting plate. 100 μL of culture medium (containing cells) was added to a 96-well plate according to the standard of 2000 to 6000 cells per well and incubated in an incubator (37° C., 5% CO2) for 24 hours. After the cells were completely adhered to the wall, the test sample and Plinabulin were diluted to different concentrations using fresh culture medium, and 4 wells were set for each concentration. After 72 hours of drug treatment, the culture medium was removed, and 20 μL of MTT at a concentration of 5 mg/mL was added to each well. After 3-4 hours in the incubator, the MTT was discarded, and 100 μL of DMSO was added to each well, and placed in a 96-well plate shaker to completely dissolve the purple formazan. Subsequently, the absorbance (OD value) was detected at a wavelength of 490 nm using a microplate reader. The experiment also required setting up zero-setting wells (blank culture medium, MTT, DMSO). Cell inhibition rate=1−(OD value of drug-dosed group−OD value of zero-setting group)/(OD value of blank group−OD value of zero-setting group)×100%.

The next experiment deals with BxPC-3. Kind of experiment: Inhibition test on cell proliferation (MTT), BxPC-3. As to conditions: read-out: IC50 (nM) BxPC-3. On the procedure:
as §1

For another experiment, the system named is HT-29. Kind of experiment: Inhibition test on cell proliferation (MTT), HT-29. The note with it: 72 hours of drug treatment. On the procedure:
as §1

A further experiment relates to HCC-LM3. As to the kind of experiment: Inhibition test on cell proliferation (MTT), HCC-LM3. As to conditions: read-out: IC50 (nM) HCC-LM3. On the procedure: as §1
The mark [1] stands for this setting: Homo sapiens, NCI-H460, 72 h, 72 hours of drug treatment, MTT, read-out: IC50 (nM) NCI-H460.
Where [2] appears, read: Homo sapiens, BXPC-3, 72 h, 72 hours of drug treatment, MTT.
Setting [3] is: Homo sapiens, HCCLM3, 72 h, 72 hours of drug treatment, MTT.
[4] abbreviates: Homo sapiens, NCI-H460, 72 h, read-out: IC50 (nM) NCI-H460, 72 hours of drug treatment, MTT.
Setting [5] is: 72 hours of drug treatment, MTT, mesylate, read-out: IC50 (nM) NCI-H460.
[6] abbreviates: 72 hours of drug treatment, MTT, mesylate.
Where [7] appears, read: 72 hours of drug treatment, MTT, hydrochloride.

For the molecule `CC(C)c1c(/C=c2\[nH]c(=O)/c(=C/c3cccc(C(=O)c4ccc(F)cc4)c3)[nH]c2=O)ncn1CCCN1CCN(C)CC1` [PLN-2-21, (3Z,6Z)-3-(3-(p-fluorobenzoyl)phenyl)methylene-6-((5-isopropyl-1-(3-N-methylpiperazinyl)propylimidazol-4-yl)methylene)piperazine-2,5-dione], the half-maximal inhibitory concentration (IC50) in the experiment on NCI-H460 (setting [1]) turned out to be 23.9 ± 1.02 nM; with BxPC-3 (setting [2]), 15.3 ± 1.83 nM; in the experiment with HT-29 (Homo sapiens, HT-29, 72 h), 13.8 ± 3.08 nM.

In the case of `O=c1[nH]/c(=C\c2ncn(CCCN3CCOCC3)c2C2CC2)c(=O)[nH]/c1=C\c1ccccc1` [PLN-2-6, (3Z,6Z)-3-benzylidene-6-((5-cyclopropyl-1-(−3-morpholinyl)propylimidazol-4-yl)methylene)piperazine-2,5-dione], the IC50 in the experiment with NCI-H460 (setting [1]) was 33.5 ± 0.46 nM; in the experiment on BxPC-3 (setting [2]) it was 27.7 ± 0.94 nM; in the experiment on HCC-LM3 (setting [3]), 16.6 ± 0.66 nM; in the experiment on HT-29 (Homo sapiens, HT-29, 72 h) it was 25.3 ± 3.54 nM.

Regarding `CC(CN1CCOCC1)Cn1cnc(/C=c2\[nH]c(=O)/c(=C/c3cccc(F)c3)[nH]c2=O)c1C(C)C` (stereo not shown) [PLN-2-67, (3Z,6Z)-3-(3-Fluorophenyl)methylene-6-((5-isopropyl-1-(3-morpholinyl)-2-methylpropylimidazol-4-yl)methylene)piperazine-2,5-dione], the IC50 is 8.39 ± 0.58 nM in the experiment with NCI-H460 (setting [1]), 3.73 ± 0.06 nM with BxPC-3 (setting [2]) and 7.7 ± 0.04 nM in the experiment on HCC-LM3 (setting [3]).

As to `CCCC(=O)N1CCN(CCCn2cnc(/C=c3\[nH]c(=O)/c(=C/c4cccc(F)c4)[nH]c3=O)c2C(C)C)CC1` [PLN-2-66, (3Z,6Z)-3-(3-Fluorophenyl)methylene-6-(5-isopropyl-1-(3-(4-(n-butyryl)piperazinyl)propylimidazol-4-yl)methylene)piperazine-2,5-dione], the IC50 in the experiment with NCI-H460 (setting [4]) turned out to be 40.3 ± 3.72 nM; in the experiment with BxPC-3 (Homo sapiens, BXPC-3, 72 h), 30.4 ± 0.35 nM; with HCC-LM3 (Homo sapiens, HCCLM3, 72 h), 43.9 ± 7.94 nM.

Consider `CC(=O)N1CCN(CCCn2cnc(/C=c3\[nH]c(=O)/c(=C/c4cccc(F)c4)[nH]c3=O)c2C(C)C)CC1` [PLN-2-64, (3Z,6Z)-3-(3-Fluorophenyl)methylene-6-(5-isopropyl-1-(3-(4-(acetyl)piperazinyl)propylimidazol-4-yl)methylene)piperazine-2,5-dione], for which the IC50 turned out to be 18.5 ± 0.3 nM in the experiment on NCI-H460 (setting [1]), 7.7 ± 0.39 nM with BxPC-3 (setting [2]) and 26.1 ± 2.14 nM with HCC-LM3 (setting [3]).

As to `CC(C)c1c(/C=c2\[nH]c(=O)/c(=C/c3ccc(F)c(F)c3)[nH]c2=O)ncn1CCCN1CCOCC1` [PLN-2-63-2, (3Z,6Z)-3-(3,4-Difluorophenyl)methylene-6-((5-isopropyl-1-(3-morpholinyl)propylimidazol-4-yl)methylene)piperazine-2,5-dione, mesylate], the figures for the IC50 in the experiment on NCI-H460 (setting [5]), in the experiment with BxPC-3 (setting [6]) and in the experiment on HCC-LM3 (setting [6]) were 95.9 ± 3.66 nM, 50.9 ± 6.75 nM and 69.5 ± 4.26 nM, respectively.

Turning to `CC(C)c1c(/C=c2\[nH]c(=O)/c(=C/c3cccc(C(=O)c4ccc(F)cc4)c3)[nH]c2=O)ncn1CCCN1CCNCC1` [PLN-2-16, (3Z,6Z)-3-(3-(p-fluorobenzoyl)phenyl)methylene-6-((5-isopropyl-1-(3-piperazinyl)propylimidazol-4-yl)methylene)piperazine-2,5-dione], the IC50 in the experiment with NCI-H460 (setting [1]) worked out at 25.6 ± 9.64 nM; in the experiment with BxPC-3 (setting [2]), 5.92 ± 3.74 nM; in the experiment with HT-29 (Homo sapiens, HT-29, 72 h) it was 11.1 ± 1.87 nM.

Regarding `CC(C)c1c(/C=c2\[nH]c(=O)/c(=C/c3cccc(F)c3)[nH]c2=O)ncn1CCCN1CCO[C@@H](C)C1` [PLN-2-57-1, (3Z,6Z)-3-(3-Fluorophenyl)methylene-6-(5-isopropyl-1-(3-S)—(−2-methylmorpholinyl)propylimidazol-4-yl)methylene)piperazine-2,5-dione, hydrochloride], the IC50 stood at 17.5 ± 0.71 nM with NCI-H460 (72 hours of drug treatment, MTT, hydrochloride, read-out: IC50 (nM) NCI-H460); 14.1 ± 1.23 nM in the experiment with BxPC-3 (setting [7]); 12.9 ± 1.61 nM with HCC-LM3 (setting [7]); 10.6 ± 3.68 nM in the experiment on HT-29 (hydrochloride).

Regarding `CC(C)c1c(/C=c2\[nH]c(=O)/c(=C/c3cccc(F)c3)[nH]c2=O)ncn1CCCN1CCOCC1` [PLN-2-9-2, mesylate], the IC50 stood at 8.49 ± 0.72 nM in the experiment on NCI-H460 (setting [5]), 5.14 ± 0.52 nM in the experiment on BxPC-3 (setting [6]), 6.08 ± 0.51 nM in the experiment with HCC-LM3 (setting [6]) and 5.84 ± 1.66 nM with HT-29 (mesylate).

On to `CC(C)c1c(/C=c2\[nH]c(=O)/c(=C/c3cccc(C(=O)c4ccc(F)cc4)c3)[nH]c2=O)ncn1CCCN1CCN(C(=O)C2CCC2)CC1` [PLN-2-36, (3Z,6Z)-3-(3-(p-fluorobenzoyl)phenyl)methylene-6-((5-isopropyl-1-(3-N-cyclobutanoylpiperazinyl)propylimidazol-4-yl)methylene)piperazine-2,5-dione], for which the IC50 with NCI-H460 (setting [1]) turned out to be 4.31 ± 0.59 nM; in the experiment on BxPC-3 (setting [2]) it was 2.25 ± 1.22 nM; with HT-29 (Homo sapiens, HT-29, 72 h) it was 2.97 ± 0.51 nM.

Consider `CC(C)c1c(/C=c2\[nH]c(=O)/c(=C/c3cccc(C(=O)c4ccc(F)cc4)c3)[nH]c2=O)ncn1CCCN1CCOCC1` [PLN-2-1-2, (3Z,6Z)-3-(3-(p-Fluorobenzoyl)phenyl)methylene-6-((5-isopropyl-1-(3-morpholinyl)propylimidazol-4-yl)methylene)piperazine-2,5-dione, mesylate], for which the IC50 with NCI-H460 (setting [1]) was 1.95 ± 0.08 nM; with BxPC-3 (setting [2]), 1.33 ± 0.19 nM; with HCC-LM3 (setting [6]), 1.85 ± 0.27 nM; in the experiment with HT-29 (Homo sapiens, HT-29, 72 h), 1.42 ± 0.46 nM.

For the molecule `O=c1[nH]/c(=C\c2ncn(CCCN3CCOCC3)c2C2CC2)c(=O)[nH]/c1=C\c1cccc(F)c1` [PLN-2-10-2, (3Z,6Z)-3-(3-Fluorophenyl)methylene-6-((5-cyclopropyl-1-(3-morpholinyl)propylimidazol-4-yl)methylene)piperazine-2,5-dione, mesylate], the IC50 in the experiment on NCI-H460 (setting [5]) amounted to 11.2 ± 2.04 nM; in the experiment with BxPC-3 (setting [6]) it was 12.6 ± 0.96 nM; with HCC-LM3 (setting [6]) it was 13.3 ± 4.02 nM; with HT-29 (mesylate), 13.2 ± 2.15 nM.

As to `CC(C)c1c(/C=c2\[nH]c(=O)/c(=C/c3cccc(C(=O)c4ccc(F)cc4)c3)[nH]c2=O)ncn1CCCN1CCN(C(=O)OC(C)(C)C)CC1` [PLN-2-15, (3Z,6Z)-3-(3-(p-fluorobenzoyl)phenyl)methylene-6-((5-isopropyl-1-(3-N-tert-butoxycarbonylpiperazinyl)propylimidazol-4-yl)methylene)piperazine-2,5-dione], the IC50 in the experiment with NCI-H460 (setting [1]) was 8.01 ± 1.24 nM; with BxPC-3 (setting [2]), 6.77 ± 0.08 nM.

For `CCC(CC)C(=O)N1CCN(CCCn2cnc(/C=c3\[nH]c(=O)/c(=C/c4cccc(C(=O)c5ccc(F)cc5)c4)[nH]c3=O)c2C(C)C)CC1` [PLN-2-34, (3Z,6Z)-3-(3-(p-fluorobenzoyl)phenyl)methylene-6-((5-isopropyl-1-(3-N-(2-ethylbutyryl)piperazinyl)propylimidazol-4-yl)methylene)piperazine-2,5-dione], the values for the IC50 in the experiment with NCI-H460 (setting [1]) and with BxPC-3 (setting [2]) were 20.1 ± 3.67 nM and 17.5 ± 0.27 nM, respectively.

For `CC(C)c1c(/C=c2\[nH]c(=O)/c(=C/c3cccc(C(=O)c4ccc(F)cc4)c3)[nH]c2=O)ncn1CCCN1CCN(S(C)(=O)=O)CC1` [PLN-2-42, (3Z,6Z)-3-(3-(p-fluorobenzoyl)phenyl)methylene-6-((5-isopropyl-1-(3-N-methylsulfonylpiperazinyl)propylimidazol-4-yl)methylene)piperazine-2,5-dione], the IC50 was 6.59 ± 1.29 nM with NCI-H460 (setting [4]) and 3.38 ± 0.53 nM in the experiment on BxPC-3 (Homo sapiens, BXPC-3, 72 h).

Take `CC(C)c1c(/C=c2\[nH]c(=O)/c(=C/c3cccc(C(=O)c4ccc(F)cc4)c3)[nH]c2=O)ncn1CCCN1CCN(C(=O)c2ccccc2)CC1` [PLN-2-41, (3Z,6Z)-3-(3-(p-fluorobenzoyl)phenyl)methylene-6-((5-isopropyl-1-(3-N-benzoylpiperazinyl)propylimidazol-4-yl)methylene)piperazine-2,5-dione]: the IC50 in the experiment on NCI-H460 (setting [1]) was 5.55 ± 1.68 nM; in the experiment on BxPC-3 (setting [2]), 3.25 ± 2.13 nM.

Regarding `O=c1[nH]/c(=C\c2ncn(CCCN3CCOCC3)c2C2CC2)c(=O)[nH]/c1=C\c1cc(F)ccc1F` [PLN-2-8, (3Z,6Z)-3-(2,5-difluorophenyl)methylene-6-((5-cyclopropyl-1-(−3-morpholinyl)propylimidazol-4-yl)methylene)piperazine-2,5-dione], the IC50 in the experiment on NCI-H460 (setting [1]) came to 15.2 ± 2.82 nM; with BxPC-3 (setting [2]) it was 8.8 ± 0.16 nM; in the experiment with HT-29 (Homo sapiens, HT-29, 72 h) it was 13.4 ± 2.08 nM.

Regarding `CCC(=O)N1CCN(CCCn2cnc(/C=c3\[nH]c(=O)/c(=C/c4cccc(F)c4)[nH]c3=O)c2C(C)C)CC1` [PLN-2-65, (3Z,6Z)-3-(3-Fluorophenyl)methylene-6-(5-isopropyl-1-(3-(4-(propionyl)piperazinyl)propylimidazol-4-yl)methylene)piperazine-2,5-dione], the results for the IC50 with NCI-H460 (setting [1]), in the experiment with BxPC-3 (setting [2]) and in the experiment with HCC-LM3 (setting [3]) were 17.4 ± 1.45 nM, 10.3 ± 2.18 nM and 20.9 ± 0.97 nM, respectively.
